Values quoted from earlier work in patent US20230382903A1, “SMALL MOLECULE MODULATORS OF GP130 SIGNALING PATHWAYS, TOPICAL FORMULATIONS AND METHOD OF USE THEREOF” (CarthroniX, Inc., priority 2020, published 2023).

Assays:
[1] = target: T1, gp130 (Homo sapiens, UniProt P40189)
T1 sequence (P40189 23-918): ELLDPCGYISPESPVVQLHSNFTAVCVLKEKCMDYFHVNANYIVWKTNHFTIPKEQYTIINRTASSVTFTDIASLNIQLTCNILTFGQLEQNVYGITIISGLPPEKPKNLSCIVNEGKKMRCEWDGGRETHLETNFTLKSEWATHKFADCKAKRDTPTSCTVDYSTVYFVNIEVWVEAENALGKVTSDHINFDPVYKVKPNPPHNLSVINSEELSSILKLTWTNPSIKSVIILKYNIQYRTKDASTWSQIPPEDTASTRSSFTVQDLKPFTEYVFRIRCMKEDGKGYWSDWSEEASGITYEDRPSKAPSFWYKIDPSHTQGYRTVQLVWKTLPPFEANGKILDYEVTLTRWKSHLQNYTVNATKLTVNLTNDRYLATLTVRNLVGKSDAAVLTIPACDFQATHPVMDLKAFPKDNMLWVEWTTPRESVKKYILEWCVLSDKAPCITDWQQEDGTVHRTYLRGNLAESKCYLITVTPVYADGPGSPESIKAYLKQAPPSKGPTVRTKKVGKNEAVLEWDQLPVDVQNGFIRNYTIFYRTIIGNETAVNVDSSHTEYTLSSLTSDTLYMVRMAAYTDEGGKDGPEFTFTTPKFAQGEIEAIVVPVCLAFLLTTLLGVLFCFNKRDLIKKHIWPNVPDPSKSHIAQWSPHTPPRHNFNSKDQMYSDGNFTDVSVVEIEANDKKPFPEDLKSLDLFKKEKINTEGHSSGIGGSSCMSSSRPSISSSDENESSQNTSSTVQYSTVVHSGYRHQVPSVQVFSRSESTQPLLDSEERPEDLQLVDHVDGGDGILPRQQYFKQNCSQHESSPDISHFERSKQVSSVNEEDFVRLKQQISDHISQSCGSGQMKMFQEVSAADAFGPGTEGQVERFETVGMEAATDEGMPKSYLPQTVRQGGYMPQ

[2] = system: cartilage degeneration; conditions: rat model of OA

Q: For `Brc1ccc(Nc2nc(-c3ccccc3)cs2)cc1` [RCGD 423], which “interaction with gp130” value ([1]; in vitro) is on record?
A: interacts with the extracellular region of gp130

Q: What about the “formation of gp130 homodimers” value ([1]; ligand-independent) of the same molecule?
A: promotes the formation of active, ligand-independent gp130 homodimers

Q: What about the “prevention of cartilage degeneration” value [2] of the same molecule?
A: remarkable ability to prevent cartilage degeneration
